From PMC12010006, “Subnanomolar MAS-related G protein-coupled receptor-X2/B2 antagonists with efficacy in human mast cells and disease models” (Signal Transduction and Targeted Therapy, 2025) come the findings set out here.

One data set addresses T1, MRGPRX2 (Homo sapiens, UniProt Q96LB1).
T1 sequence (Q96LB1 1-330): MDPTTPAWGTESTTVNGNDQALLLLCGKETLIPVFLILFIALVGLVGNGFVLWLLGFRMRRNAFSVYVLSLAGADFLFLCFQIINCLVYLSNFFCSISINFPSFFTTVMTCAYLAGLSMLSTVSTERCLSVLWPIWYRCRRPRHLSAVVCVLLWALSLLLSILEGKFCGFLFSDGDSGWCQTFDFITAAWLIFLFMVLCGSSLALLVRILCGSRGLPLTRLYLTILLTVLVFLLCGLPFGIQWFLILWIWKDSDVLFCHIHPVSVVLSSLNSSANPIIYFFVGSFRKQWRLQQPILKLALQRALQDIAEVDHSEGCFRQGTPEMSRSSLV
The experiment in a line: Surface expression of CD107a and CD63 (flow cytometry), LAD2 cells activated with SP. The format is cell-based. The note with it: 30 nM, 5 min; SP 300 nM. As to the method:
The granule-associated proteins CD107a and CD63 externalize in the process of degranulation. Their quantification by flow cytometry is a reliable marker of mast cell activation, which is often used for the diagnosis of allergies and anaphylaxis in mast cell activation tests.[49],[50] Thus, the expression of CD107a and CD63 on the cell surface was determined to confirm the effects of PSB-172656 on SP-induced MRGPRX2-mediated degranulation. […] In addition to MRPGRX2, LAD2 cells also express a GPCR that is specifically activated by the complement component C3a.[51] Both receptors can activate Gαi/o proteins to promote MC activation.[48],[52]
MC degranulation was also measured by determining the cell surface expression of CD107a (Lysosomal-Associated Membrane Protein-1, LAMP-1) and CD63 (LAMP-3) after agonist stimulation.[48] LAD2 cells were preincubated with PSB-172656 or vehicle control for 5 min at 37 °C, then activated with SP (0.3 μM) and or C3a (3 nM) for 5 min at 37 °C. After 5 min of incubation, cells were fixed with 500 µL of 4% fixation buffer (Biolegend, Catalog 420801) for 15 min at room temperature. […] Cell surface expression of CD107a and CD63 was measured from the zombie-yellow negative population by a BD LSR II flow cytometer (San Jose, CA, USA) and analyzed by FlowJo software version 10.7.2 (Tree Star Inc., Ashland, OR, USA).[48],[50]

Another data set relates to LAD2 cells. Briefly: MTT assay, LAD2 cells. The format is cell-based, human. The note with it: 24 h; concentrations up to 6-fold higher than IC50 (3, 10, 30 nM). As for the experimental part: Fig. 6 PSB-172656 inhibits MRGPRX2-mediated mast cell degranulation. a LAD2 cells were incubated with buffer (control) or various concentrations of MRGPRX2 antagonist PSB-172656, subsequently exposed to substance P (SP, 0.3 µM), and β-hexosaminidase release was measured. […] Data are expressed as means ± SEM of 3 biological replicates. Statistical significance was determined by one-way ANOVA (Tukey’s multiple comparisons), compared to the effect of SP in the absence of PSB-172656 (P-value*** < 0.001). b Potential cytotoxicity of PSB-172656 was determined in 3-[4,5-dimethylthiazol-2-yl]-2,5-diphenyl tetrazolium bromide (MTT) assays performed on LAD2 cells. Cells were treated with different concentrations of PSB-172656 for 24 h at 37 °C, and the optic density value was determined at 570 nm (the viability of untreated cells corresponds to 100% cell viability). […] Mean fluorescence intensity (MFI) levels of e CD107a and f CD63 are depicted. […] Degranulation is characterized by the release of β-hexosaminidase, expressed as a percentage of the total content. h Human skin MCs were incubated with different concentrations of PSB-172656 for 30 min followed by stimulation with CST-14 (1 µM). Statistical significance was calculated by one-way ANOVA (Tukey’s multiple comparisons), compared to agonist without PSB-172656 (P-value* < 0.05, […], and P-value**** < 0.001) […]

Each structure is given as a SMILES string.

`CCc1c(C(C)C)[nH]c2nc3cc(F)c(F)cc3n2c1=O` [Compound 24, 3-ethyl-7,8-difluoro-2-isopropylbenzo[4,5]imidazo [1,2-a] pyrimidin-4(1H)-one]: the “effect on SP-induced expression of CD107a and CD63 on the cell surface” value at MRGPRX2 is “completely prevented”. Further, the “toxicity in LAD2 cells (MTT)” value in the data set with LAD2 cells is recorded as “did not exhibit toxicity”.
